Structures can show the parent of a compound that is named as a salt. Where two headings read alike, the source gives them in different places. One block for each molecule: values may come before it.
Experiments:
Format in all cases: physicochemical
[1] = Gravimetric vapour sorption (GVS); settings: for Stability to humidity GVS uptake: 25° C.; for XRPD pattern following the adsorption/desorption analysis: after GVS
Procedure: The Gravimetric sorption isotherms were obtained using a Hiden IGASorp moisture sorption analyser, controlled by CFRSorp software. The sample temperature was maintained at 25° C. by a Huber re-circulating water bath. The humidity was controlled by mixing streams of dry and wet nitrogen, with a total flow rate of 250 ml/min. The relative humidity (RH) was measured by a calibrated Vaisala RH probe (dynamic range of 0-95% RH), located near the sample. The weight change, (mass relaxation) of the sample as a function of % RH was constantly monitored by the microbalance (accuracy 0.001 mg). Typically 10-20 mg of sample was placed in a tared mesh stainless steel basket at room temperature. The sample was loaded and unloaded at 40% RH and 25° C. (typical room conditions). The standard isotherm was performed at 25° C. at 10% RH intervals over a 0-90% RH range.

[2] = Thermodynamic aqueous solubility; settings: for solubility at 24 h: water, 25 °C, thermodynamic from solid
Procedure: The suspension was equilibrated at 25° C. for 24 hours then the pH was measured. The suspension was then filtered through a glass fibre C filter. […] Different volumes of the standard, diluted and undiluted sample solutions were injected.

[3] = Stability to humidity on storage (form by XRPD)
[4] = Phase equilibration between Form I, II and IV of Formula I (Example 12); settings: slurried 13 days
Procedure: About 10 mg of the mixture was then slurried in 200 μl of pre-saturated solvent at the desired temperatures for 13 days. The solids were then quickly filtered and analyzed by XRPD.

[5] = Form conversion on heating (VT-XRPD)
From the text: It is not clear whether a form change accompanies this loss of water, as the water is readily taken back up when the sample is returned to ambient RH.

[6] = Phase equilibration between Form I and IV of Formula I (Example 13)
Procedure: The suspensions of Form and IV from the equilibration studies were taken to 25° C.

[7] = relative humidity from about 0% to about 90%
[8] = relative humidity from about 0% to about 95%, di(4-methylbenzenesulfonate)

Stability to humidity GVS uptake [1]: 15.2%
XRPD pattern following the adsorption/desorption analysis ([1]; dihydrochloride): substantially changed
GVS mass increase [1, 7]: about 14%
solubility at 24 h ([2]; pH 4.1, water, at pH 4.1, read-out: Aqueous solubility): > 90 mg/mL
solubility at 24 h ([2]; 25° C., 24 hours, at the pH of the next column, read-out: Aqueous solubility mg/mL free form): > 90 mg/mL
Form after storage ([3]; 25° C./92% RH for seven days): change of form
Form after storage ([3]; 40° C./75% RH for seven days): change of form
SMILES: COc1cc2c(cc1OC)[C@H]1C[C@@H](OC(=O)[C@@H](N)C(C)C)[C@H](CC(C)C)CN1CC2 [Form I of Formula II, (S)-(2R,3R,11bR)-3-isobutyl-9,10-dimethoxy-2,3,4,6,7,11b-hexahydro-1H-pyrido[2,1-a]isoquinolin-2-yl 2-amino-3-methylbutanoate dihydrochloride]

SMILES: COc1cc2c(cc1OC)C1CC(OC(=O)C(N)C(C)C)C(CC(C)C)CN1CC2.Cc1ccc(S(=O)(=O)O)cc1.Cc1ccc(S(=O)(=O)O)cc1 (stereo not drawn) [Form I, II, and IV]
Form found by XRPD after equilibration ([4]; Acetonitrile/2% water, 25° C.): Form I
Form found by XRPD after equilibration ([4]; Acetonitrile/2% water, 50° C.): Form I
Form found by XRPD after equilibration ([4]; Acetonitrile/5% water, 5° C.): Form IV
Form found by XRPD after equilibration ([4]; Acetonitrile/5% water, 25° C.): Form I
Form found by XRPD after equilibration ([4]; Acetonitrile/5% water, 50° C.): Form I
Form found by XRPD after equilibration ([4]; Acetonitrile/10% water, 5° C.): Form IV
Form found by XRPD after equilibration ([4]; Acetonitrile/10% water, 25° C.): Form I
Form found by XRPD after equilibration ([4]; Acetonitrile/10% water, 50° C.): Form I
Form found by XRPD after equilibration ([4]; Acetonitrile, 5° C.): Form I
Form found by XRPD after equilibration ([4]; Acetonitrile, 25° C.): Form I
Form found by XRPD after equilibration ([4]; Acetonitrile, 50° C.): Form I

GVS mass loss ([1]; RH lowered to 0%): ca. 12%
Form conversion on heating (VT-XRPD) ([5]; heating): no conversion to Form I on heating
Temperature at which the material becomes amorphous (VT-XRPD) ([5]; no subsequent crystallization upon cooling): above 160 °C
Aqueous solubility ([2]; at pH 4.1, dihydrochloride): > 67 mg/mL free form equivalent
SMILES: COc1cc2c(cc1OC)[C@H]1C[C@@H](OC(=O)[C@@H](N)C(C)C)[C@H](CC(C)C)CN1CC2 [Form II of Formula II, (S)-(2R,3R,11bR)-3-isobutyl-9,10-dimethoxy-2,3,4,6,7,11b-hexahydro-1H-pyrido[2,1-a]isoquinolin-2-yl 2-amino-3-methylbutanoate dihydrochloride]

Hygroscopicity ([1]; GVS): substantially non-hygroscopic
Stability with respect to humidity ([1]; GVS): stable with respect to humidity
XRPD pattern following the adsorption/desorption analysis ([1]; di(4-methylbenzenesulfonate)): substantially unchanged
GVS mass increase [1, 8]: about 0.5%
solubility at 24 h ([2]; pH 5.1, water, at pH 5.1, read-out: aqueous solubility): ~18.5 mg/mL
SMILES: COc1cc2c(cc1OC)[C@H]1C[C@@H](OC(=O)[C@@H](N)C(C)C)[C@H](CC(C)C)CN1CC2.Cc1ccc(S(=O)(=O)O)cc1.Cc1ccc(S(=O)(=O)O)cc1 [Form II, (S)-(2R,3R,11bR)-3-isobutyl-9,10-dimethoxy-2,3,4,6,7,11b-hexahydro-1H-pyrido[2,1-a]isoquinolin-2-yl 2-amino-3-methylbutanoate di(4-methylbenzenesulfonate)]

Stability with respect to humidity ([1]; GVS): stable with respect to humidity
XRPD pattern following the adsorption/desorption analysis ([1]; di(4-methylbenzenesulfonate)): substantially unchanged
GVS mass lost ([1]; relative humidity decreased between about 40 and 0% RH): 1.8%
GVS mass increase [1, 8]: about 3.4%
GVS mass increase ([1]; relative humidity from about 40% to about 95%): about 1.6%
Form conversion in suspension ([6]; 25° C., overnight stirring): did not convert
Form conversion in suspension ([6]; heated to 30° C. for 2 days): conversion to Form I was then complete
Form conversion upon re-slurry ([6]; re-slurry at room temperature in acetonitrile): converts to Form I
Form conversion upon heating ([5]; heating at about 230° C.): converts to Form I
SMILES: COc1cc2c(cc1OC)[C@H]1C[C@@H](OC(=O)[C@@H](N)C(C)C)[C@H](CC(C)C)CN1CC2.Cc1ccc(S(=O)(=O)O)cc1.Cc1ccc(S(=O)(=O)O)cc1 [Form IV, (S)-(2R,3R,11bR)-3-isobutyl-9,10-dimethoxy-2,3,4,6,7,11b-hexahydro-1H-pyrido[2,1-a]isoquinolin-2-yl 2-amino-3-methylbutanoate di(4-methylbenzenesulfonate)]

XRPD pattern following the adsorption/desorption analysis ([1]; di(4-methylbenzenesulfonate)): substantially unchanged
GVS mass lost ([1]; relative humidity decreased between about 20 and 0% RH): 1.2%
GVS mass increase ([1]; relative humidity from about 10% to about 95%): about 1%
Form conversion upon heating ([5]; heating between about 110° C. and about 140° C.): converts to Form VI
SMILES: COc1cc2c(cc1OC)[C@H]1C[C@@H](OC(=O)[C@@H](N)C(C)C)[C@H](CC(C)C)CN1CC2.Cc1ccc(S(=O)(=O)O)cc1.Cc1ccc(S(=O)(=O)O)cc1 [Form V, (S)-(2R,3R,11bR)-3-isobutyl-9,10-dimethoxy-2,3,4,6,7,11b-hexahydro-1H-pyrido[2,1-a]isoquinolin-2-yl 2-amino-3-methylbutanoate di(4-methylbenzenesulfonate)]

Form conversion upon exposure to gravimetric vapour sorption analysis [1]: converts to Form V
XRPD pattern following the adsorption/desorption analysis ([1]; di(4-methylbenzenesulfonate)): substantially changed
GVS mass lost ([1]; relative humidity decreased between about 15% and 0% RH): 2.0%
GVS mass lost ([1]; relative humidity decreased between about 90% and 15% RH): 1.2%
GVS mass increase [1, 7]: about 3.1%
GVS mass increase ([1]; relative humidity from about 40% to about 80%): about 0.5%
GVS mass increase ([1]; relative humidity from about 80% to about 90%): about 3.1%
SMILES: COc1cc2c(cc1OC)[C@H]1C[C@@H](OC(=O)[C@@H](N)C(C)C)[C@H](CC(C)C)CN1CC2.Cc1ccc(S(=O)(=O)O)cc1.Cc1ccc(S(=O)(=O)O)cc1 [Form VI, (S)-(2R,3R,11bR)-3-isobutyl-9,10-dimethoxy-2,3,4,6,7,11b-hexahydro-1H-pyrido[2,1-a]isoquinolin-2-yl 2-amino-3-methylbutanoate di(4-methylbenzenesulfonate)]

Stability to humidity GVS uptake [1]: >3.9%
SMILES: Br [hydrobromide]

SMILES: COc1cc2c(cc1OC)C1CC(OC(=O)C(N)C(C)C)C(CC(C)C)CN1CC2.O=C(O)C(=O)O.O=C(O)C(=O)O (stereo not drawn) [oxalate]
Stability to humidity GVS uptake [1]: 0.8%
Stability to humidity 25° C./92% RH ([3]; 25° C./92% RH): unchanged
Stability to humidity 40° C./75% RH ([3]; 40° C./75% RH): unchanged

Source: patent publication US10844058B2, “Valbenazine salts and polymorphs thereof” (Neurocrine Biosciences, Inc., priority 2015, dated 2020)
